# Results reported in patent publication US20240024515A1, “COMBINATION TREATMENT” (priority 2022, published 2024).
# Read-outs that look alike come from different tables or passages of the source.
# Tests used:
# [1] = system: CFTR; format: cell-based, human; conditions: no LV
# Procedure: To analyse the functionality of rSIV.F/HN-CFTR-expressed channels, CFTR-mediated chloride current was measured in an Ussing chamber using rSIV.F/HN-CFTR (vGM058) transduced ALI cultures. First, sodium channels (ENaC) were blocked using amiloride, followed by stimulation of CFTR using forskolin and the change in short circuit current (Δlsc) was calculated (both peak and plateau values). In some experiments, ivacaftor, a small molecule CFTR potentiator which increases channel open probability, was added for additional stimulation of CFTR current. Finally, the chloride current was blocked with CFTR-Inhibitor 172 (FIG. 3D).
# To compare the functionality of vGM058 and vGM244, CFTR-mediated chloride current was measured in an Ussing chamber using class II ALI cultures transduced with both vGM058 and vGM244.
# To analyse the functionality of rSIV.F/HN-CFTR-expressed channels, CFTR-mediated chloride current was measured in an Ussing chamber using rSIV.F/HN-CFTR (vGM244) transduced class II ALI cultures (Table 3).
# [2] = target: CFTR (Homo sapiens, UniProt P13569); format: cell-based; conditions: no LV
# Chain of CFTR (Homo sapiens, UniProt P13569) (P13569 whole entry): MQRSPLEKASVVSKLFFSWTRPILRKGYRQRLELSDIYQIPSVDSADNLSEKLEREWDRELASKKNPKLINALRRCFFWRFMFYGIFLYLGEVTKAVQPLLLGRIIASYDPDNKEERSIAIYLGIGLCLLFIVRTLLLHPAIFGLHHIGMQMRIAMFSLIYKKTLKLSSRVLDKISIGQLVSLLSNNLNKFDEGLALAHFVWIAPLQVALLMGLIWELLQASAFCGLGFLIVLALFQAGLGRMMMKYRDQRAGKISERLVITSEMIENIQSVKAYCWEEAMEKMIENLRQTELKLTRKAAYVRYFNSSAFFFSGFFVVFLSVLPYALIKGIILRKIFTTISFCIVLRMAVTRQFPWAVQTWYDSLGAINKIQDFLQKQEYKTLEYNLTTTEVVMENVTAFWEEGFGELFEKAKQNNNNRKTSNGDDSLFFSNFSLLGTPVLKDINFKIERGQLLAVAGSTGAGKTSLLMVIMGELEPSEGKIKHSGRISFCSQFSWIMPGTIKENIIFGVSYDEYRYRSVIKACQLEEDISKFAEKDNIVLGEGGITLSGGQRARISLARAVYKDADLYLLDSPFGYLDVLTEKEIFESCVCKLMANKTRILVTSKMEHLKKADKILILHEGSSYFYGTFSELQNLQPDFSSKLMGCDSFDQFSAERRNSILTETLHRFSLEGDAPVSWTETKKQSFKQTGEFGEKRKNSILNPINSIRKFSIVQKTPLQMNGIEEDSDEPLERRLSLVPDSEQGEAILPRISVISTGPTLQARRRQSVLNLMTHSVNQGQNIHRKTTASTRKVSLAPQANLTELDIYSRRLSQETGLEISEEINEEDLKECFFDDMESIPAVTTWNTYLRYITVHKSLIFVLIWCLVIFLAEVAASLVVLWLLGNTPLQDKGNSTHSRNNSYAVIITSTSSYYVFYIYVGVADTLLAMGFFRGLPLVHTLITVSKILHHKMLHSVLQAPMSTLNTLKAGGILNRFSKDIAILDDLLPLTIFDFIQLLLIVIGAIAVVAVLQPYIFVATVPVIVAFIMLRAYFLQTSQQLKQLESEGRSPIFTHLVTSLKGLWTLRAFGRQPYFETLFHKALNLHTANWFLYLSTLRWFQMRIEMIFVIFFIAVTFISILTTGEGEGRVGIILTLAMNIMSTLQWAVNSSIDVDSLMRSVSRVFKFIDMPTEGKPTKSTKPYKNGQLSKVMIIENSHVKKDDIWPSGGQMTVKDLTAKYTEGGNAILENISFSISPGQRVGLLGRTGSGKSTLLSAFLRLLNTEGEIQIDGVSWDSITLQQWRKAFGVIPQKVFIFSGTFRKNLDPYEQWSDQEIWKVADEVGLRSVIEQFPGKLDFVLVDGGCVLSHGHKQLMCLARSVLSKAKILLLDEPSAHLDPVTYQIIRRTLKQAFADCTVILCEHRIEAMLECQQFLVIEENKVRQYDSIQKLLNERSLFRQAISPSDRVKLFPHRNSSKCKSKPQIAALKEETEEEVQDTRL
# [3] = Table 1, Class II F508del/F508del ALI, vGM058 study
# [4] = Table 3, Class II F508del/F508del ALI, vGM244 study
# [5] = Table 2, Class I CFTR KO ALI, vGM058 study
# [6] = Table 4, Class I CFTR KO ALI, vGM244 study
compound,measurement,setting,value
"CC(C)(C)c1cc(C(C)(C)C)c(NC(=O)c2c[nH]c3ccccc3c2=O)cc1O [Iva, ivacaftor]",ΔCFTR-inh172peak,[1]; [3],−2.1 ± 0.3
same,ΔCFTR-inh172plateau,[1]; [3],−2.1 ± 0.3
same,ΔFskpeak,[1]; [3],−0.1 ± 0.3
same,ΔFskplateau,[1]; [3],−0.1 ± 0.3
same,ΔCFTR-inh172peak,[1]; [4],−1.6 ± 0.1
same,ΔCFTR-inh172plateau,[1]; [4],−1.6 ± 0.1
same,ΔFskpeak,[1]; [4],1.0 ± 0.3
same,ΔFskplateau,[1]; [4],1.0 ± 0.3
same,ΔCFTR-inh172peak,[2]; [5],−3.0 ± 0.2
same,ΔCFTR-inh172plateau,[2]; [5],−3.0 ± 0.2
same,ΔFskpeak,[2]; [5],−1.9 ± 0.1
same,ΔFskplateau,[2]; [5],−1.9 ± 0.1
same,ΔCFTR-inh172peak,[2]; [6],−0.2 ± 0.2
same,ΔCFTR-inh172plateau,[2]; [6],−0.2 ± 0.2
same,ΔFskpeak,[2]; [6],−0.7 ± 0.2
same,ΔFskplateau,[2]; [6],−0.7 ± 0.2
